From US20070207946A1, “Dipeptidyl peptidase IV inhibitors and their uses for lowering blood pressure levels” (priority 2001, published 2007) come the findings set out here.

The assay relates to diabetic Zucker rats. In words: Dose escalation study in fatty Zucker rats, oral glucose tolerance test. The assay is classed as in vivo, rat. Particulars: 2 g/kg glucose. The procedure: N=30 male Zucker rats (fa/fa), mean age 11 weeks (5-12 weeks), mean body weight 350 g (150-400 g), were purchased from Charles River (Sulzfeld, Germany).
After delivery they were kept for >12 weeks until nearly all fatty Zucker rats had the characteristics of manifest diabetes mellitus. A group of N=8 animals were recruited for testing three escalating doses of glutaminyl pyrrolidine vs. placebo (saline).
Placebo (1 ml saline, 0.154 mol/l) or escalating doses of glutaminyl pyrrolidine (5, 15 and 50 mg/kg b.w.) were administered to groups of N=8 fatty Zucker rats. 375 mg of glutaminyl pyrrolidine were dissolved in 1000 μl DMSO (E. Merck, Darmstadt; Germany [Dimethyl sulfoxide p.a.]). 10 ml saline were added and 1 ml aliquots, each containing 34.09 mg of glutaminyl pyrrolidine, were stored at −20° C. For preparation of the test substance, dose dependent aliquots were diluted in saline.
After overnight fasting, placebo or test substance were administered to the fatty Zucker rats via feeding tube orally (15 G, 75 mm; Fine Science Tools, Heidelberg, Germany) at −10 min An oral glucose tolerance test (OGTT) with 2 g/kg b.w. glucose (40% solution, B. Braun Melsungen, Melsungen, Germany) was administered at ±0 min via a second feeding tube. Venous blood samples from the tail veins were collected at −30 min, −15 min, ±0 min and at 5, 10, 15, 20, 30, 40, 60, 90 and 120 min into 20 μl glass capillaries, which were placed in standard tubes filled with 1 ml solution for blood glucose measurement.
Glucose levels were measured using the glucose oxidase procedure (Super G Glucose analyzer; Dr. Müller Gerätebau, Freital, Germany).
Statistical evaluations and graphics were performed with PRISM® 3.02 (GraphPad Software, Inc.). All parameters were analysed in a descriptive manner including mean and SD.
After delivery they were kept for >12 weeks until nearly all fatty Zucker rats had the characteristics of manifest diabetes mellitus. […]
Glucose levels were measured using the glucose oxidase procedure (Super G Glucose analyzer; Dr. Möller Gerätebau, Freital, Germany).

On to `NC(=O)CCC(N)C(=O)N1CCCC1` (stereo not drawn) [Gln-Pyrr, glutaminyl pyrrolidine], for which the “glucose tolerance (OGTT)” value (5 mg/kg b.w. oral) was “limited improvement”. For the same molecule, the “elevated blood glucose levels and glucose tolerance (OGTT)” value was “Significant lowering” (15 mg/kg oral) and “Significant lowering” (50 mg/kg b.w. oral).
